Data: article PMC6872757 (Heliyon, 2019)

What was measured:
Experiment in all cases: TR-FRET nuclear receptor binding assay
[1] = target: T1, PPARα (Homo sapiens, UniProt Q07869)
T1 sequence (Q07869 1-468): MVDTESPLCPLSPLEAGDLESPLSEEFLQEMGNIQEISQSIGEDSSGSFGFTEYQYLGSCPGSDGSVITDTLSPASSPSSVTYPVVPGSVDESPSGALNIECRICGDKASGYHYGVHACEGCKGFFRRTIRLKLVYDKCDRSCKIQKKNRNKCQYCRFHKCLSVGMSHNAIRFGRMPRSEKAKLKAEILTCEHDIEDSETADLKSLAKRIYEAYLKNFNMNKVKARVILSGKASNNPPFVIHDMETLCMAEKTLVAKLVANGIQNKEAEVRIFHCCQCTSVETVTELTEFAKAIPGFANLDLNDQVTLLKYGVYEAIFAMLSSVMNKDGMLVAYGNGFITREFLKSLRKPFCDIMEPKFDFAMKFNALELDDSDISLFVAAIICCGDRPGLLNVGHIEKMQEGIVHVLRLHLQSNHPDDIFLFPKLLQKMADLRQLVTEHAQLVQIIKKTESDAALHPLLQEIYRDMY

[2] = target: T2, PPARγ (Homo sapiens, UniProt P37231)
T2 sequence (P37231 1-505): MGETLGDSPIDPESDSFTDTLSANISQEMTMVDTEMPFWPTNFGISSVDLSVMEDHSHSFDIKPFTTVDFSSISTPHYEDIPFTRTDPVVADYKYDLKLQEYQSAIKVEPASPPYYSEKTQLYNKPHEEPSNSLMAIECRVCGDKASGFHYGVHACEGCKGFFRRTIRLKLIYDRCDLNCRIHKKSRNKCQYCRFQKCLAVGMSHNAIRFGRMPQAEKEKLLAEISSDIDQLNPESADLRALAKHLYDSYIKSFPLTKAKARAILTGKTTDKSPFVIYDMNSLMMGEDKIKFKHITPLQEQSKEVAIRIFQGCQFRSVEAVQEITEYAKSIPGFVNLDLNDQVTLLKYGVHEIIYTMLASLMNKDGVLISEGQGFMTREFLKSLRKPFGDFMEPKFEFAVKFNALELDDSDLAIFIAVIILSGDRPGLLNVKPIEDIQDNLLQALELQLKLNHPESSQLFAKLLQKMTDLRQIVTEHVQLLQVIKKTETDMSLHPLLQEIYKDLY

[3] = target: T3, PPARδ(β) (Homo sapiens, UniProt Q03181)
T3 sequence (Q03181 1-441): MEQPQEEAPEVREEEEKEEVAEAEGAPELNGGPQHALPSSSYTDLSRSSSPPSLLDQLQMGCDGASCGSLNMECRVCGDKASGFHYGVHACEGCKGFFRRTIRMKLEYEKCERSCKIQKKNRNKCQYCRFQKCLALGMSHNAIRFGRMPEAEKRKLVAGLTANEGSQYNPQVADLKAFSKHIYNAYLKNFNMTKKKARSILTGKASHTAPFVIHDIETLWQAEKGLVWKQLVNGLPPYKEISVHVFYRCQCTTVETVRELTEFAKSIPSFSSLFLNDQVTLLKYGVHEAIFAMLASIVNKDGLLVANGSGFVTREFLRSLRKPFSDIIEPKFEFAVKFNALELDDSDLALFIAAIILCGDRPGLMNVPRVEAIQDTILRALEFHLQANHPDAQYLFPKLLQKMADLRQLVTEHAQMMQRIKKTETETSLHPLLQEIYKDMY

Row | EC50 nuclear receptor binding PPARα [1] | EC50 nuclear receptor binding PPARγ [2] | EC50 nuclear receptor binding PPARδ(β) [3] | SMILES
1 | No binding | No binding | No binding | CC1=C(/C=C/C(C)=C\C=C\C(C)=C\C(=O)O)C(C)(C)CCC1 [9-cis RA]
2 | No binding | No binding | No binding | CC1=C(/C=C/C(C)=C/C=C/C(C)=C/C(=O)O)C(C)(C)CCC1 [ATRA, all-trans retinoic acid]
